Test results as given in patent US10765114B2, “4-amino-6-(pyridyl and 2-substitutedphenyl)-picolinates and 6-amino-2-(pyridyl and 2-substitutedphenyl)-pyrimidine-4-carboxylates and their use as herbicides” (Dow AgroSciences LLC, priority 2013, dated 2020).

How the values were obtained:
Experiment in all cases: Post-Emergent Test III (Wheat and Barley)
[1] = test system: TRZSS; format: in vivo; conditions: for pest or weed control at 35 g/ha / pest or weed control at 70 g/ha / pest or weed control at 140 g/ha: Triticum aestivum, post-emergence, 504 h, postemergence, read-out: Visual Growth Reduction (%) 21 Days After Application, TRZSS; for pest or weed control at 35 g/ha: 35 g ai/ha; for pest or weed control at 70 g/ha: 70 g ai/ha; for pest or weed control at 140 g/ha: 140 g ai/ha; for GR20, TRZSS: effective dose for growth reduction of 20 percent, probit analysis
Procedure: (§1) Seeds of the desired test plant species were planted in Sun Gro MetroMix® 306 planting mixture, which typically has a pH of 6.0 to 6.8 and an organic matter content of about 30 percent, in plastic pots with a surface area of 103.2 square centimeters (cm^2). When required to ensure good germination and healthy plants, a fungicide treatment and/or other chemical or physical treatment was applied. The plants were grown for 7-36 days in a greenhouse with an approximate 14 h photoperiod which was maintained at about 18° C. during the day and 17° C. during the night. Nutrients and water were added on a regular basis and supplemental lighting was provided with overhead metal halide 1000-Watt lamps as necessary. The plants were employed for testing when they reached the second or third true leaf stage.
(§2) A weighed amount, determined by the highest rate to be tested, of each test compound was placed in a 25 mL glass vial and was dissolved in 4 mL of a 97:3 v/v mixture of acetone and DMSO to obtain concentrated stock solutions. […] The concentrated stock solutions obtained were diluted with 20 mL of an aqueous mixture containing acetone, water, isopropyl alcohol, DMSO, Agri-Dex crop oil concentrate, and X-77 surfactant in a 48:39:10:1.5:1.5:0.02 v/v ratio to obtain spray solutions containing the highest application rates. Additional application rates were obtained by serial dilution of 12 mL of the high rate solution into a solution containing 2 mL of 97:3 v/v mixture of acetone and DMSO and 10 mL of an aqueous mixture containing acetone, water, isopropyl alcohol, DMSO, Agri-Dex crop oil concentrate, and X-77 surfactant in a 48:39:10:1.5:1.5:0.02 v/v ratio to obtain ½×, ¼×, ⅛× and 1/16× rates of the high rate. Compound requirements are based upon a 12 mL application volume at a rate of 187 liters per hectare (L/ha). Formulated compounds were applied to the plant material with an overhead Mandel track sprayer equipped with 8002E nozzles calibrated to deliver 187 L/ha over an application area of 0.503 square meters at a spray height of 18 inches (43 cm) above the average plant canopy height. Control plants were sprayed in the same manner with the solvent blank.
(§3) The treated plants and control plants were placed in a greenhouse as described above and watered by subirrigation to prevent wash-off of the test compounds. After 21 dAYS, the condition of the test plants as compared with that of the untreated plants was determined visually and scored on a scale of 0 to 100 percent where 0 corresponds to no injury and 100 corresponds to complete kill and presented as indicated in Table A.
(§4) By applying the well-accepted probit analysis as described by J. Berkson in Journal of the American Statistical Society, 48, 565 (1953) and by D. Finney in “Probit Analysis” Cambridge University Press (1952), herbicidal injury of a specific compound at various rates can be used to calculate GR10, GR20, GR50, GR80 and GR90 values, which are defined as growth reduction factors that correspond to the effective dose of herbicide required to provide plant growth reduction (GR) of 10 percent, 20 percent, 50 percent, 80 percent and 90 percent, respectively. Probit analysis was applied to data collected from multiple dose rates of individual compounds utilizing the procedures explained in the following examples. The analysis of those dose rates is captured in the following tables.

[2] = test system: HORSS; format: in vivo; conditions: for pest or weed control at 35 g/ha / pest or weed control at 70 g/ha / pest or weed control at 140 g/ha: Hordeum vulgare, post-emergence, 504 h, postemergence, read-out: Visual Growth Reduction (%) 21 Days After Application, HORSS; for pest or weed control at 35 g/ha: 35 g ai/ha; for pest or weed control at 70 g/ha: 70 g ai/ha; for pest or weed control at 140 g/ha: 140 g ai/ha; for GR20, HORSS: effective dose for growth reduction of 20 percent, probit analysis
Procedure: as §1, §2, §3, §4

[3] = test system: APESV (windgrass); format: in vivo, Apera spica-venti; conditions: for pest or weed control at 35 g/ha / pest or weed control at 70 g/ha / pest or weed control at 140 g/ha: Apera spica-venti, post-emergence, 504 h, postemergence, read-out: Visual Growth Reduction (%) 21 Days After Application, APESV; for pest or weed control at 35 g/ha: 35 g ai/ha; for pest or weed control at 70 g/ha: 70 g ai/ha; for pest or weed control at 140 g/ha: 140 g ai/ha; for GR50, APESV: effective dose for growth reduction of 50 percent; for GR50, APESV / GR80, APESV: probit analysis; for GR80, APESV: effective dose for growth reduction of 80 percent
Procedure: as §1, §2, §3, §4

[4] = test system: KCHSC (kochia); format: in vivo, Kochia scoparia; conditions: for pest or weed control at 35 g/ha / pest or weed control at 70 g/ha / pest or weed control at 140 g/ha: Bassia scoparia, post-emergence, 504 h, postemergence, read-out: Visual Growth Reduction (%) 21 Days After Application, KCHSC; for pest or weed control at 35 g/ha: 35 g ai/ha; for pest or weed control at 70 g/ha: 70 g ai/ha; for pest or weed control at 140 g/ha: 140 g ai/ha; for GR50, KCHSC: effective dose for growth reduction of 50 percent; for GR50, KCHSC / GR80, KCHSC: probit analysis; for GR80, KCHSC: effective dose for growth reduction of 80 percent
Procedure: as §1, §2, §3, §4

[5] = test system: ALOMY (blackgrass); format: in vivo, Alopecurus myosuroides; conditions: for pest or weed control at 35 g/ha / pest or weed control at 70 g/ha / pest or weed control at 140 g/ha: Alopecurus myosuroides, post-emergence, 504 h, postemergence, read-out: Visual Growth Reduction (%) 21 Days After Application, ALOMY; for pest or weed control at 35 g/ha: 35 g ai/ha; for pest or weed control at 70 g/ha: 70 g ai/ha; for pest or weed control at 140 g/ha: 140 g ai/ha; for GR50, ALOMY: effective dose for growth reduction of 50 percent; for GR50, ALOMY / GR80, ALOMY: probit analysis; for GR80, ALOMY: effective dose for growth reduction of 80 percent
Procedure: as §1, §2, §3, §4

## Nc1c(Cl)c(C(=O)O)nc(-c2ccc(C(F)(F)F)nc2)c1Cl [Compound 33]
[1]
  pest or weed control at 35 g/ha: 75 to 84%
  pest or weed control at 70 g/ha: 75 to 84%
  pest or weed control at 140 g/ha: 85 to 94%
  GR20, TRZSS: 1 g ai/ha
[2]
  pest or weed control at 35 g/ha: 75 to 84%
  pest or weed control at 70 g/ha: 85 to 94%
  pest or weed control at 140 g/ha: 85 to 94%
  GR20, HORSS: 1 g ai/ha
[3]
  pest or weed control at 35 g/ha: 0 to 29%
  pest or weed control at 70 g/ha: 60 to 74%
  pest or weed control at 140 g/ha: 60 to 74%
  GR50, APESV: 70 g ai/ha
  GR80, APESV: 134 g ai/ha
[4]
  pest or weed control at 35 g/ha: 0 to 29%
  pest or weed control at 70 g/ha: 45 to 59%
  pest or weed control at 140 g/ha: 60 to 74%
  GR50, KCHSC: 95 g ai/ha
  GR80, KCHSC: >140 g ai/ha
[5]
  pest or weed control at 35 g/ha: 60 to 74%
  pest or weed control at 70 g/ha: 75 to 84%
  pest or weed control at 140 g/ha: 85 to 94%
  GR50, ALOMY: 37 g ai/ha
  GR80, ALOMY: 72 g ai/ha

## COC(=O)c1nc(-c2ccc(Cl)c(F)c2OC)cc(N)c1Cl [Compound 20]
[1]
  pest or weed control at 35 g/ha: 85 to 94%
  pest or weed control at 70 g/ha: 85 to 94%
  pest or weed control at 140 g/ha: 85 to 94%
  GR20, TRZSS: 2 g ai/ha
[2]
  pest or weed control at 35 g/ha: 45 to 59%
  pest or weed control at 70 g/ha: 75 to 84%
  pest or weed control at 140 g/ha: 85 to 94%
  GR20, HORSS: 7 g ai/ha
[3]
  pest or weed control at 35 g/ha: 0 to 29%
  pest or weed control at 70 g/ha: 60 to 74%
  pest or weed control at 140 g/ha: 75 to 84%
  GR50, APESV: 117 g ai/ha
  GR80, APESV: >140 g ai/ha
[4]
  pest or weed control at 35 g/ha: 85 to 94%
  pest or weed control at 70 g/ha: 95 to 100%
  pest or weed control at 140 g/ha: 95 to 100%
  GR50, KCHSC: 2 g ai/ha
  GR80, KCHSC: 10 g ai/ha
[5]
  pest or weed control at 35 g/ha: 45 to 59%
  pest or weed control at 70 g/ha: 75 to 84%
  pest or weed control at 140 g/ha: 85 to 94%
  GR50, ALOMY: 86 g ai/ha
  GR80, ALOMY: >140 g ai/ha

## Cc1c(-c2ccc(C(F)(F)F)nc2)nc(C(=O)O)c(Cl)c1N [Compound 51, 4-amino-5-chloro-3-methyl-6′-(trifluoromethyl)-[2,3′-bipyridine]-6-carboxylic acid]
[1]
  pest or weed control at 35 g/ha: 60 to 74%
  pest or weed control at 70 g/ha: 75 to 84%
  GR20, TRZSS: 1 g ai/ha
[2]
  pest or weed control at 35 g/ha: 60 to 74%
  pest or weed control at 70 g/ha: 75 to 84%
  GR20, HORSS: 1 g ai/ha
[3]
  pest or weed control at 35 g/ha: 0 to 29%
  pest or weed control at 70 g/ha: 60 to 74%
  GR50, APESV: 63 g ai/ha
  GR80, APESV: 139 g ai/ha
[4]
  pest or weed control at 35 g/ha: 0 to 29%
  pest or weed control at 70 g/ha: 0 to 29%
[5]
  pest or weed control at 35 g/ha: 0 to 29%
  pest or weed control at 70 g/ha: 0 to 29%
  GR50, ALOMY: >140 g ai/ha
  GR80, ALOMY: >140 g ai/ha

## COC(=O)c1nc(-c2ccc(Cl)c(F)c2OC)c(F)c(N)c1Cl [Compound 39, methyl 4-amino-3-chloro-6-(4-chloro-3-fluoro-2-methoxyphenyl)-5-fluoropicolinate]
[1]
  pest or weed control at 35 g/ha: 85 to 94%
  pest or weed control at 70 g/ha: 95 to 100%
  pest or weed control at 140 g/ha: 95 to 100%
  GR20, TRZSS: 11 g ai/ha
[2]
  pest or weed control at 35 g/ha: 30 to 44%
  pest or weed control at 70 g/ha: 60 to 74%
  pest or weed control at 140 g/ha: 75 to 84%
  GR20, HORSS: 23 g ai/ha
[3]
  pest or weed control at 35 g/ha: 30 to 44%
  pest or weed control at 70 g/ha: 60 to 74%
  pest or weed control at 140 g/ha: 60 to 74%
  GR50, APESV: 75 g ai/ha
  GR80, APESV: >140 g ai/ha
[4]
  pest or weed control at 35 g/ha: 85 to 94%
  pest or weed control at 70 g/ha: 95 to 100%
  pest or weed control at 140 g/ha: 95 to 100%
  GR50, KCHSC: 6 g ai/ha
  GR80, KCHSC: 21 g ai/ha
[5]
  pest or weed control at 35 g/ha: 0 to 29%
  pest or weed control at 70 g/ha: 30 to 44%
  pest or weed control at 140 g/ha: 30 to 44%
  GR50, ALOMY: >140 g ai/ha
  GR80, ALOMY: >140 g ai/ha
